# In patent publication US9732063B2, “Kinase inhibitors” (RESPIVERT LIMITED, priority 2012, dated 2017):
# Tests used:
# PBMCs [1] = assay: LPS-induced TNFα/IL-8 release in PBMC cells; format: cell-based; details: Homo sapiens, read-out: IC50 Values for Inhibition of Cytokine Release PBMCs IL-8
# Method: Peripheral blood mononuclear cells (PBMCs) from healthy subjects are separated from whole blood using a density gradient (Lymphoprep, Axis-Shield Healthcare). The PBMCs are seeded in 96 well plates and treated with compounds at the desired concentration for 2 hours before addition of 1 ng/mL LPS (Escherichia Coli O111:B4 from Sigma Aldrich) for 24 hours under normal tissue culture conditions (37° C., 5% CO2). The supernatant is harvested for determination of IL-8 and TN Fa concentrations by sandwich ELISA (Duo-set, R&D systems) and read on the fluorescence microplate reader (Varioskan® Flash, ThermoFisher Scientific).
# GSK3α = GSK3α (Homo sapiens (Human), UniProt P49840); assay: GSK 3α enzyme inhibition (Z-LYTE FRET, Method 2); format: biochemical
# Method: The enzyme inhibitory activities of compounds disclosed herein are determined by FRET using synthetic peptides labelled with both donor and acceptor fluorophores (Z-LYTE, Invitrogen Ltd., Paisley, UK).
# The inhibitory activities of compounds of the invention against the GSK 3α enzyme isoform (Invitrogen), are evaluated by determining the level of activation/phosphorylation of the target peptide. The GSK3-α protein (500 ng/mL, 2.5 μL) is mixed with the test compound (2.5 μL at either 4 μg/mL, 0.4 μg/mL, 0.04 μg/mL, or 0.004 μg/mL) for 2 hr at RT. The FRET peptide (8 μM, 2.5 μL), which is a phosphorylation target for GSK3α, and ATP (40 μM, 2.5 μL) are then added to the enzyme/compound mixture and the resulting mixture incubated for 1 hr. Development reagent (protease, 5 μL) is added for 1 hr prior to detection in a fluorescence microplate reader (Varioskan® Flash, ThermoFisher Scientific).
# In all cases, the site-specific protease cleaves non-phosphorylated peptide only and eliminates the FRET signal. Phosphorylation levels of each reaction are calculated using the ratio of coumarin emission (donor) over fluorescein emission (acceptor), for which high ratios indicate high phosphorylation and low ratios indicate low phosphorylation levels.
# PBMCs [2] = assay: IL-2 and IFN gamma release in CD3/CD28 stimulated PBMC cells; format: cell-based; details: Homo sapiens
# Method: PBMCs from healthy subjects are separated from whole blood using a density gradient (Lymphoprep, Axis-Shield Healthcare). Cells are added to a 96 well plate pre-coated with a mixture of CD3/CD38 monoclonal antibodies (0.3 μg/mL eBioscience and 3 μg/mL BD Pharmingen respectively). Compound at the desired concentration is then added to the wells and the plate left for 3 days under normal tissue culture conditions. Supernatants are harvested and IL-2 and IFN gamma release determined by Sandwich ELISA (Duo-set, R&D System). The IC50 is determined from the dose response curve.
# Chain of GSK3α (P49840 whole entry): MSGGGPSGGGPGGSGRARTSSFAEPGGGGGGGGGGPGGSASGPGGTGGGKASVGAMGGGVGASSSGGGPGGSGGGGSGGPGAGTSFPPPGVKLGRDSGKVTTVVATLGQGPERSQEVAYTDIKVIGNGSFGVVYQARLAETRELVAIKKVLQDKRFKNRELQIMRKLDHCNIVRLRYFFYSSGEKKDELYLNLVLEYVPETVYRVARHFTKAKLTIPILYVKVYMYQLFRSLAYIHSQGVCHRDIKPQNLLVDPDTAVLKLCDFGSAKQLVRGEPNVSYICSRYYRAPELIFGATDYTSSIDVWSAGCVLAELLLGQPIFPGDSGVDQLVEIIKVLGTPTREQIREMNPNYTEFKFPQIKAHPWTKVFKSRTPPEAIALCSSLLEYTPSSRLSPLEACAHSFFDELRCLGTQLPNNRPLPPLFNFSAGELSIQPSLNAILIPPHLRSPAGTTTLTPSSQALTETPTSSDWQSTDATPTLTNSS
Structure (SMILES),IC50 (PBMCs [1]) [nM],IC50 (GSK3α) [nM],IC50 (PBMCs [1]; LPS-stimulated PBMCs) [nM],IC50 (PBMCs [2]; read-out: IC50 Values for Inhibition of Cytokine Release PBMCs IFNγ) [nM],IC50 (PBMCs [2]; read-out: IC50 Values for Inhibition of Cytokine Release PBMCs IL-2) [nM]
"COCCOCCOCCOc1cccc(Nc2nccc(Oc3ccc(NC(=O)Nc4cc(C(C)(C)C)nn4-c4ccc(OC)nc4)c4ccccc34)n2)c1 [Example 4, 1-(3-(tert-Butyl)-1-(6-methoxypyridin-3-yl)-1H-pyrazol-5-yl)-3-(4-((2-((3-(2-(2-(2-methoxy-ethoxy)ethoxy)ethoxy)phenyl)amino)pyrimidin-4-yl)oxy)naphthalen-1-yl)urea]",1.7,,,,
"COc1ccc(-n2nc(C(C)(C)C)cc2NC(=O)Nc2ccc(Oc3ccnc(Nc4cccc(OC(N)=O)c4)n3)c3ccccc23)cn1 [Example 5, 3-(4-((4-(3-(3-(tert-Butyl)-1-(6-methoxypyridin-3-yl)-1H-pyrazol-5-yl)ureido)naphthalen-1-yl)oxy)pyrimidin-2-yl)amino)phenyl carbamate]",1.9,306,,,
COc1ccc(-n2nc(C(C)(C)C)cc2NC(=O)Nc2ccc(Oc3ccnc(Nc4cccc(SCCO)c4)n3)c3ccccc23)cn1 [Example 6],1.6,501,,,
"COc1ccc(-n2nc(C(C)(C)C)cc2NC(=O)Nc2ccc(Oc3ccnc(Nc4cccc([S+]([O-])C5CC5)c4)n3)c3ccccc23)cn1 (stereo not shown) [Example 7, 1-(3-(tert-Butyl)-1-(6-methoxypyridin-3-yl)-1H-pyrazol-5-yl)-3-(4-((2-((3-(cyclopropyl-sulfinyl)phenyl)amino)pyrimidin-4-yl)oxy)naphthalen-1-yl)urea]",0.9,125,,,
"COc1ccc(-n2nc(C(C)(C)C)cc2NC(=O)Nc2ccc(Oc3ccnc(Nc4cccc(S(=O)(=O)C5CC5)c4)n3)c3ccccc23)cn1 [Example 8, 1-(3-(tert-Butyl)-1-(6-methoxypyridin-3-yl)-1H-pyrazol-5-yl)-3-(4-((2-((3-(cyclopropyl-sulfonyl)phenyl)amino)pyrimidin-4-yl)oxy)naphthalen-1-yl)urea]",1,258,,,
"COc1cc(N=S(C)(C)=O)cc(Nc2nccc(Oc3ccc(NC(=O)Nc4cc(C(C)C)nn4-c4ccc(C)cc4)c4ccccc34)n2)c1 [Example 16, 3-(5-Methoxy((4-((4-(3-(3-isopropyl-1-(p-tolyl)-1H-pyrazol-5-yl)ureido)naphthalen-1-yl)-oxy)pyrimidin-2-yl)amino))phenyl-S,S-dimethyl-N-phenyl sulfoximine]",,,1.7,,
"Cc1ccc(-n2nc(C(C)C)cc2NC(=O)Nc2ccc(Oc3ccnc(Nc4cccc(S(=O)(=O)C5CC5)c4)n3)c(Cl)c2Cl)cc1 [Example 24, 1-(2,3-Dichloro-4-((2-((3-(cyclopropylsulfonyl)phenyl)amino)pyrimidin-4-yl)oxy)phenyl)-3-(3-isopropyl-1-(p-tolyl)-1H-pyrazol-5-yl)urea]",3.8,117,,,
"COc1cc(Nc2nccc(Oc3ccc(NC(=O)Nc4cc(C(C)C)nn4-c4ccc(C)cc4)c(F)c3F)n2)cc(OCCN2CCOCC2)c1 [Example 25, 1-(2,3-Difluoro-4-((2-((3-methoxy-5-(2-morpholinoethoxy)phenyl)amino)pyrimidin-4-yl)oxy)phenyl)-3-(3-isopropyl-1-(p-tolyl)-1H-pyrazol-5-yl)urea]",2,804,,,
COc1cc(N=S(C)(C)=O)cc(Nc2nccc(Oc3ccc(NC(=O)Nc4cc(C(C)C)nn4-c4ccc(C)cc4)c(Cl)c3Cl)n2)c1 [Example 26],3.9,426,,,
"COCCOCCOCCOc1cc(Nc2nccc(Oc3ccc(NC(=O)Nc4cc(C(C)C)nn4-c4ccc(C)cc4)c4ncccc34)n2)cc(OC)c1 [Example 27, 1-(3-Isopropyl-1-(P-tolyl)-1H-pyrazol-5-yl)-3-(5-((2-((3-methoxy-5-(2-(2-(2-methoxy-ethoxy)ethoxy)ethoxy)phenyl)amino)pyrimidin-4-yl)oxy)quinolin-8-yl)urea]",24.8,> 10000,,,
"COc1cc(Nc2nccc(Oc3ccc(NC(=O)Nc4cc(C(C)C)nn4-c4ccc(C)cc4)c4ncccc34)n2)cc(OCCN2CCOCC2)c1 [Example 28, 1-(3-Isopropyl-1-(P-tolyl)-1H-pyrazol-5-yl)-3-(5-((2-((3-methoxy-5-(2-morpholinoethoxy)-phenyl)amino)pyrimidin-4-yl)oxy)quinolin-8-yl)urea]",24,> 10000,,,
"COCCOCCOCCSc1cc(Nc2nccc(Oc3ccc(NC(=O)Nc4cc(C(C)C)nn4-c4ccc(C)cc4)c4ccccc34)n2)cc(OC)c1 [Example 31, 1-(3-Isopropyl-1-(P-tolyl)-1H-pyrazol-5-yl)-3-(4-((2-((3-methoxy-5-((2-(2-(2-methoxy-ethoxy)ethoxy)ethyl)thio)phenyl)amino)pyrimidin-4-yl)oxy)naphthalen-1-yl)urea]",4.4,> 10000,,,
"COCCOCCOCCOc1cc(Nc2nccc(Oc3ccc(NC(=O)Nc4cc(C(C)C)nn4-c4ccc(C)cc4)c4ccccc34)n2)cc(OC(F)(F)F)c1 [Example 33, 1-(3-Isopropyl-1-(p-tolyl)-1H-pyrazol-5-yl)-3-(4-((2-((3-(2-(2-(2-methoxyethoxyl)ethoxy)-ethoxy)-5-(trifluoromethoxy)phenyl)amino)pyrimidin-4-yl)oxy)naphthalen-1-yl)urea]",8.7,> 10000,,,
COCCOCCOCCOc1cc(Nc2nccc(Oc3ccc(NC(=O)Nc4cc(C(C)C)nn4-c4ccc(C)cc4)c4ccccc34)n2)cc(C(F)(F)F)c1 [Example 34],12.2,> 10000,,,
"COCCOCCOCCS(=O)(=O)c1cc(Nc2nccc(Oc3ccc(NC(=O)Nc4cc(C(C)C)nn4-c4ccc(C)cc4)c4ccccc34)n2)cc(OC)c1 [Example 36, 1-(3-Isopropyl-1-(p-tolyl)-1H-pyrazol-5-yl)-3-(4-((2-((3-methoxy-5-((2-(2-(2-methoxy-ethoxy)ethoxy)ethyl)sulfonyl)phenyl)amino)pyrimidin-4-yl)oxy)naphthalen-1-yl)urea]",2.5,596,,,
"Cc1ccc(-n2nc(C(C)(C)C)cc2NC(=O)Nc2ccc(Oc3ccnc(Nc4cccc(S(=O)(=O)C5CC5)c4)n3)c3ccccc23)cc1 [Example 46, 1-(3-(tert-Butyl)-1-(p-tolyl)-1H-pyrazol-5-yl)-3-(4-((2-((3-(cyclopropylsulfonyl)phenyl)-amino)pyrimidin-4-yl)oxy)naphthalen-1-yl)urea]",2.7,172,,,
"COCCOCCOCCOc1cc(F)cc(Nc2nccc(Oc3ccc(NC(=O)Nc4cc(C(C)(C)C)nn4-c4ccc(C)cc4)c4ccccc34)n2)c1 [Example 50, 1-(3-(tert-Butyl)-1-(p-tolyl)-1H-pyrazol-5-yl)-3-(4-((2-((3-fluoro-5-(2-(2-(2-methoxyethoxy)-ethoxy)ethoxy)phenyl)amino)pyrimidin-4-yl)oxy)naphthalen-1-yl)urea]",8.6,3030,,,
"COc1cc(Nc2nccc(Oc3ccc(NC(=O)Nc4cc(C(C)(C)C)nn4-c4ccc(C)cc4)c4ccccc34)n2)cc(OCCOCCOCCN2CCOCC2)c1 [Example 58, 1-(3-(tert-Butyl)-1-(p-tolyl)-1H-pyrazol-5-yl)-3-(4-((2-((3-methoxy-5-(2-(2-(2-morpholinoethoxy)ethoxy)ethoxy)phenyl)amino)pyrimidin-4-yl)oxy)naphthalen-1-yl)urea]",,,,1.3,39.6
"COc1cc(Nc2nccc(Oc3ccc(NC(=O)Nc4cc(C(C)(C)C)nn4-c4ccc(C)cc4)c(Cl)c3Cl)n2)cc(OCCN2CCOCC2)c1 [Example 59, 1-(3-(tert-Butyl)-1-(p-tolyl)-1H-pyrazol-5-yl)-3-(2,3-dichloro-4-((2-((3-methoxy-5-(2-morpholinoethoxy)phenyl)amino)pyrimidin-4-yl)oxy)phenyl)urea]",4.2,,,,
"COCCOCCOCCN(C)c1cc(Nc2nccc(Oc3ccc(NC(=O)Nc4cc(C(C)(C)C)nn4-c4ccc(C)cc4)c4ccccc34)n2)cc(OC)c1 [Example 67, 1-(3-(tert-Butyl)-1-(p-tolyl)-1H-pyrazol-5-yl)-3-(4-((2-((3-methoxy-5-((2-(2-(2-methoxyethoxy)ethoxy)ethyl)(methyl)amino)phenyl)amino)pyrimidin-4-yl)oxy)naphthalen-1-yl)urea]",3.5,,,,
"COc1cc(Nc2nccc(Oc3ccc(NC(=O)Nc4cc(C(C)(C)C)nn4-c4ccc(C)cc4)c(Cl)c3Cl)n2)cc(S(=O)(=O)C2CC2)c1 [Example 68, 1-(3-(tert-Butyl)-1-(p-tolyl)-1H-pyrazol-5-yl)-3-(2,3-dichloro-4-((2-((3-(cyclopropylsulfonyl)-5-methoxyphenyl)amino)pyrimidin-4-yl)oxy)phenyl)urea]",5.2,,,,
